Laboratory results taken from ChEMBL document CHEMBL4715724, “Novel 5-substituted-2-anilinoquinolines with 3-(morpholino or 4-methylpiperazin-1-yl)propoxy moiety as broad spectrum antiproliferative agents: Synthesis, cell based assays and kinase screening” (Bioorg Med Chem Lett, 2016).

What was measured:
K562 = experiment: cells; type: functional; conditions: Homo sapiens, time 48 hrs
Description: Growth inhibition of human K562 cells incubated for 48 hrs by sulforhodamine B assay

HOP-62 = experiment: cells; type: functional; conditions: Homo sapiens, time 48 hrs
Description: Growth inhibition of human HOP-62 cells incubated for 48 hrs by sulforhodamine B assay

NCI-H226 = experiment: cells; type: functional; conditions: Homo sapiens, time 48 hrs
Description: Growth inhibition of human NCI-H226 cells incubated for 48 hrs by sulforhodamine B assay

NCI-H322M = experiment: cells; type: functional; conditions: Homo sapiens, time 48 hrs
Description: Growth inhibition of human NCI-H322M cells incubated for 48 hrs by sulforhodamine B assay

HCT-15 = experiment: cells; type: functional; conditions: Homo sapiens, time 48 hrs
Description: Growth inhibition of human HCT-15 cells incubated for 48 hrs by sulforhodamine B assay

KM12 = experiment: cells; type: functional; conditions: Homo sapiens, time 48 hrs
Description: Growth inhibition of human KM12 cells incubated for 48 hrs by sulforhodamine B assay

SNB-75 = experiment: cells; type: functional; conditions: Homo sapiens, time 48 hrs
Description: Growth inhibition of human SNB-75 cells incubated for 48 hrs by sulforhodamine B assay

LOX IMVI = experiment: cells; type: functional; conditions: Homo sapiens, time 48 hrs
Description: Growth inhibition of human LOX IMVI cells incubated for 48 hrs by sulforhodamine B assay

OVCAR-4 = experiment: cells; type: functional; conditions: Homo sapiens, time 48 hrs
Description: Growth inhibition of human OVCAR-4 cells incubated for 48 hrs by sulforhodamine B assay

OVCAR-8 = experiment: cells; type: functional; conditions: Homo sapiens, time 48 hrs
Description: Growth inhibition of human OVCAR-8 cells incubated for 48 hrs by sulforhodamine B assay

A498 = experiment: cells; type: functional; conditions: Homo sapiens, time 48 hrs
Description: Growth inhibition of human A498 cells incubated for 48 hrs by sulforhodamine B assay

TK-10 = experiment: cells; type: functional; conditions: Homo sapiens, time 48 hrs
Description: Growth inhibition of human TK-10 cells incubated for 48 hrs by sulforhodamine B assay

UO-31 = experiment: cells; type: functional; conditions: Homo sapiens, time 48 hrs
Description: Growth inhibition of human UO-31 cells incubated for 48 hrs by sulforhodamine B assay

MCF7 = experiment: cells; type: functional; conditions: Homo sapiens, time 48 hrs
Description: Growth inhibition of human MCF7 cells incubated for 48 hrs by sulforhodamine B assay

Hs-578T = experiment: cells; type: functional; conditions: Homo sapiens, time 48 hrs
Description: Growth inhibition of human Hs-578T cells incubated for 48 hrs by sulforhodamine B assay

[1] = Cytotoxicity against human HFF-1 cells assessed as cell growth inhibition at 10 uM by MTT assay relative to control; type: cell-based; conditions: read-out: GI
[2] = Cytotoxicity against human HFF-1 cells assessed as cell growth inhibition at 0.1 uM by MTT assay relative to control; type: cell-based; conditions: read-out: GI
[3] = Cytotoxicity against human HFF-1 cells assessed as cell growth inhibition by MTT assay; type: cell-based
[4] = biological target: Tyrosine-protein kinase ABL1 (Homo sapiens) (UniProt P00519); experiment: Inhibition of recombinant N-terminal His6-tagged human ABL (27 to end residues) expressed in baculovirus infected Sf21 insect cells assessed as residual activity at 10 uM relative to control
[5] = biological target: ALK tyrosine kinase receptor (Homo sapiens) (UniProt Q9UM73); experiment: Inhibition of N-terminal His6-tagged human recombinant ALK (1058 to end residues) expressed in baculovirus infected Sf21 cells assessed as residual activity at 10 uM relative to control
[6] = biological target: Serine/threonine-protein kinase B-raf (Homo sapiens) (UniProt P15056); experiment: Inhibition of recombinant N-terminal GST-tagged human BRAF (417 to 766 residues) expressed in Sf9 cells assessed as residual activity at 10 uM relative to control
[7] = biological target: Cyclin-dependent kinase 2/cyclin E1 (Homo sapiens) (UniProt P24864+P24941); experiment: Inhibition of full length C-terminal His6-tagged human CDK2/full length N-terminal GST-tagged human Cyclin E expressed in baculovirus infected Sf21 insect cells assessed as residual activity at 10 uM relative to control
[8] = biological target: Receptor-type tyrosine-protein kinase FLT3 (Homo sapiens) (UniProt P36888); experiment: Inhibition of human FLT3 assessed as residual activity at 10 uM relative to control
[9] = biological target: Vascular endothelial growth factor receptor 3 (Homo sapiens) (UniProt P35916); experiment: Inhibition of N-terminal GST-tagged human FLT4 (800 to end residues) expressed in baculovirus infected Sf21 cells assessed as residual activity at 10 uM relative to control
[10] = biological target: Macrophage colony-stimulating factor 1 receptor (Homo sapiens) (UniProt P07333); experiment: Inhibition of recombinant N-terminal His6-tagged human FMS (538 to end residues) expressed in baculovirus infected Sf21 insect cells assessed as residual activity at 10 uM relative to control
[11] = biological target: Inhibitor of nuclear factor kappa-B kinase subunit alpha (Homo sapiens) (UniProt O15111); experiment: Inhibition of human IKKalpha at 10 uM relative to control
[12] = biological target: Mitogen-activated protein kinase 8 (Homo sapiens) (UniProt P45983); experiment: Inhibition of N-terminal His-tagged recombinant full length human JNK1alpha1 expressed in Sf21 cells at 10 uM relative to control
[13] = biological target: Mitogen-activated protein kinase 1 (Homo sapiens) (UniProt P28482); experiment: Inhibition of recombinant full length N-terminal GST-tagged human MAPK2 expressed in Escherichia coli at 10 uM relative to control
[14] = biological target: Serine/threonine-protein kinase mTOR (Homo sapiens) (UniProt P42345); experiment: Inhibition of human mTOR at 10 uM relative to control
[15] = biological target: Proto-oncogene tyrosine-protein kinase receptor Ret (Homo sapiens) (UniProt P07949); experiment: Inhibition of recombinant N-terminal GST-tagged human RET (658 to end residues) expressed in baculovirus infected Sf21 insect cells at 10 uM relative to control
[16] = biological target: Rho-associated protein kinase 1 (Homo sapiens) (UniProt Q13464); experiment: Inhibition of auto-activated recombinant N-terminal His6-tagged human ROCK1 (17 to 535 residues) expressed in baculovirus infected Sf21 insect cells at 10 uM incubated in presence of Mg/ATP relative to control
[17] = biological target: Serine/threonine-protein kinase Sgk1 (Homo sapiens) (UniProt O00141); experiment: Inhibition of human SGK1 at 10 uM relative to control; conditions: Sf21
[18] = biological target: Angiopoietin-1 receptor (Homo sapiens) (UniProt Q02763); experiment: Inhibition of recombinant N-terminal His6-tagged human Tie2 (771 to end residues) expressed in baculovirus infected Sf21 insect cells at 10 uM relative to control
[19] = biological target: T1, High affinity nerve growth factor receptor (Homo sapiens, UniProt P04629); experiment: Inhibition of recombinant N-terminal His6-tagged human TrkA (440 to end residues) expressed in baculovirus infected Sf21 insect cells at 10 uM relative to control
Target sequence in this assay (P04629 33-796 limits assumed): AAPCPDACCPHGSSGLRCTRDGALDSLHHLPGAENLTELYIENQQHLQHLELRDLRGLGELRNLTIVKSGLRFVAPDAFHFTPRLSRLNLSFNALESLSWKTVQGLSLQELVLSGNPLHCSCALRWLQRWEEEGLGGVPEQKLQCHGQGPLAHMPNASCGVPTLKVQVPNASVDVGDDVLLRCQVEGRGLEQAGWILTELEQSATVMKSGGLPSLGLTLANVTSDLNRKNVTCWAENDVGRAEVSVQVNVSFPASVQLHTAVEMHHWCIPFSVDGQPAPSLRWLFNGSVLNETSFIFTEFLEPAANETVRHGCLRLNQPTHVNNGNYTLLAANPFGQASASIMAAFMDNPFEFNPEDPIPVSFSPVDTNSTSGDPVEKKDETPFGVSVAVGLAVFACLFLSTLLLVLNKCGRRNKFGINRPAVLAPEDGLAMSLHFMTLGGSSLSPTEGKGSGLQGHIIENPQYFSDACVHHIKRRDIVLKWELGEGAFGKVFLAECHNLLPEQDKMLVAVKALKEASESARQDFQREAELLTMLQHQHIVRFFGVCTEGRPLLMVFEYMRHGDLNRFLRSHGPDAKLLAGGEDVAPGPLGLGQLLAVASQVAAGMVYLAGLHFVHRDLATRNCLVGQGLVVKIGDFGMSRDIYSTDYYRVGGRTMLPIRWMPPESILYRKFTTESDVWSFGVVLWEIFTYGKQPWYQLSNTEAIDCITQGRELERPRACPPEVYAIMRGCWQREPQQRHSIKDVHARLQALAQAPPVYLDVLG

[20] = test system: PI3-kinase p110-alpha/p85-alpha (Homo sapiens), P27986+P42336 [E542K]; experiment: Inhibition of p110alpha/p85alpha E542K mutant (unknown origin) at 10 uM relative to control; type: protein-complex assay
[21] = biological target: T1, High affinity nerve growth factor receptor; experiment: Inhibition of recombinant N-terminal His6-tagged human TrkA (440 to end residues) expressed in baculovirus infected Sf21 insect cells
cells = type: functional; conditions: Homo sapiens, Non-small cell lung cancer cell line; time 48 hrs
Description: Growth inhibition of human Non-small cell lung cancer cell line incubated for 48 hrs by sulforhodamine B assay

[22] = test system: Panel colon (Carcinoma cell lines); experiment: cells; type: functional; conditions: Homo sapiens, time 48 hrs
Description: Growth inhibition of human Panel colon (Carcinoma cell lines) incubated for 48 hrs by sulforhodamine B assay

[23] = test system: Panel ovarian (Carcinoma cell lines); experiment: cells; type: functional; conditions: Homo sapiens, time 48 hrs
Description: Growth inhibition of human Panel ovarian (Carcinoma cell lines) incubated for 48 hrs by sulforhodamine B assay

[24] = test system: Panel renal (Carcinoma cell lines); experiment: cells; type: functional; conditions: Homo sapiens, time 48 hrs
Description: Growth inhibition of human Panel renal (Carcinoma cell lines) incubated for 48 hrs by sulforhodamine B assay

[25] = test system: Panel prostate (Carcinoma cell lines); experiment: cells; type: functional; conditions: Homo sapiens, time 48 hrs
Description: Growth inhibition of human Panel prostate (Carcinoma cell lines) incubated for 48 hrs by sulforhodamine B assay

Chain of Mitogen-activated protein kinase 1 (Homo sapiens) (P28482 whole entry): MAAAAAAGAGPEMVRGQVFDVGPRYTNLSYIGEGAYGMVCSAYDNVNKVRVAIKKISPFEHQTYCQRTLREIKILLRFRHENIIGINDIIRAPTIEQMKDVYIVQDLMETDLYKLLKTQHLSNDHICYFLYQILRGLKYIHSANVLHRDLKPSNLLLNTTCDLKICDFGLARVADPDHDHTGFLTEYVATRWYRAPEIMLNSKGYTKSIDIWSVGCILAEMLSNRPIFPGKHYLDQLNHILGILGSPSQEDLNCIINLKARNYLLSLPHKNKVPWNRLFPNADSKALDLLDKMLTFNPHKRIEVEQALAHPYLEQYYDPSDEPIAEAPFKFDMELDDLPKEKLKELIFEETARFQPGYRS
Chain of Serine/threonine-protein kinase Sgk1 (Homo sapiens) (O00141 whole entry): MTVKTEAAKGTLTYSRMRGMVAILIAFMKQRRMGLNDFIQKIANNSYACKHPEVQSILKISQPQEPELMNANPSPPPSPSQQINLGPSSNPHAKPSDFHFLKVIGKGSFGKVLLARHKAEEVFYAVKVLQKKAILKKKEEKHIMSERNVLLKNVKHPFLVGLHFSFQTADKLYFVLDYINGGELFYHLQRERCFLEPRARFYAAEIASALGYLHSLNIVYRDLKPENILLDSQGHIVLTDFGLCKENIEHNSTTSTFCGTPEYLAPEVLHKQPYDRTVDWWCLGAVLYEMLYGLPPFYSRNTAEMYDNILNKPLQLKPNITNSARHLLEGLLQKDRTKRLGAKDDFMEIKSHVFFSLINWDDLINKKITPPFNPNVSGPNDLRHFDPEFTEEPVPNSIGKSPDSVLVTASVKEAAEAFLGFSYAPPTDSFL
Chain of Angiopoietin-1 receptor (Homo sapiens) (Q02763 whole entry): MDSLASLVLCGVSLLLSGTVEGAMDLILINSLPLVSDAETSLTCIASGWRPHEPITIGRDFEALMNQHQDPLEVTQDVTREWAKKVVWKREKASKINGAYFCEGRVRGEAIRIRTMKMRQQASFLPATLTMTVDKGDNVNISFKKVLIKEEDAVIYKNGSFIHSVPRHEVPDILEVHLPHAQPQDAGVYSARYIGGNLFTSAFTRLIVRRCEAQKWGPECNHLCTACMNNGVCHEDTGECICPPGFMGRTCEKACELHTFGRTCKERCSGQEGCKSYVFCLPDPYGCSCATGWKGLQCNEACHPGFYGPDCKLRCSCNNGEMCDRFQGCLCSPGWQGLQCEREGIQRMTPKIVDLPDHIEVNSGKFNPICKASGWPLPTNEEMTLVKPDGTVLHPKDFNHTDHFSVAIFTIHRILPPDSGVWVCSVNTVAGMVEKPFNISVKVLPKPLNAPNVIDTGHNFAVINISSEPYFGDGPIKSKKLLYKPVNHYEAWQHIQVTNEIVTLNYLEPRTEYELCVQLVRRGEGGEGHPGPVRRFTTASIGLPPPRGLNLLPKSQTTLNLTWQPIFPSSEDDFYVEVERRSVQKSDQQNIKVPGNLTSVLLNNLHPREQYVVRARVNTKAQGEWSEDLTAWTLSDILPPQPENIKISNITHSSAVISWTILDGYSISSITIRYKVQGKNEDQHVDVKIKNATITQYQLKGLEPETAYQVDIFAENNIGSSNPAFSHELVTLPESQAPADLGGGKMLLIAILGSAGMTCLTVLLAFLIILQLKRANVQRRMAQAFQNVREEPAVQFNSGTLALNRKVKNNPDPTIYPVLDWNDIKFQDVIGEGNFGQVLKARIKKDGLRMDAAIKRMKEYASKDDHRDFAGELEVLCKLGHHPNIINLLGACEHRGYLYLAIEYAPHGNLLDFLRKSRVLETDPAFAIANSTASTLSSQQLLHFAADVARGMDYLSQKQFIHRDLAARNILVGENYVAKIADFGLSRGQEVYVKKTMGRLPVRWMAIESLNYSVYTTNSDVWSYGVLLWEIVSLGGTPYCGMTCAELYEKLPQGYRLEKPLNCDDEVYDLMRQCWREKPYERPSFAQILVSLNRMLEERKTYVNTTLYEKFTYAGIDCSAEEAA
Chain of Serine/threonine-protein kinase B-raf (Homo sapiens) (P15056 whole entry, the tested form may be a part): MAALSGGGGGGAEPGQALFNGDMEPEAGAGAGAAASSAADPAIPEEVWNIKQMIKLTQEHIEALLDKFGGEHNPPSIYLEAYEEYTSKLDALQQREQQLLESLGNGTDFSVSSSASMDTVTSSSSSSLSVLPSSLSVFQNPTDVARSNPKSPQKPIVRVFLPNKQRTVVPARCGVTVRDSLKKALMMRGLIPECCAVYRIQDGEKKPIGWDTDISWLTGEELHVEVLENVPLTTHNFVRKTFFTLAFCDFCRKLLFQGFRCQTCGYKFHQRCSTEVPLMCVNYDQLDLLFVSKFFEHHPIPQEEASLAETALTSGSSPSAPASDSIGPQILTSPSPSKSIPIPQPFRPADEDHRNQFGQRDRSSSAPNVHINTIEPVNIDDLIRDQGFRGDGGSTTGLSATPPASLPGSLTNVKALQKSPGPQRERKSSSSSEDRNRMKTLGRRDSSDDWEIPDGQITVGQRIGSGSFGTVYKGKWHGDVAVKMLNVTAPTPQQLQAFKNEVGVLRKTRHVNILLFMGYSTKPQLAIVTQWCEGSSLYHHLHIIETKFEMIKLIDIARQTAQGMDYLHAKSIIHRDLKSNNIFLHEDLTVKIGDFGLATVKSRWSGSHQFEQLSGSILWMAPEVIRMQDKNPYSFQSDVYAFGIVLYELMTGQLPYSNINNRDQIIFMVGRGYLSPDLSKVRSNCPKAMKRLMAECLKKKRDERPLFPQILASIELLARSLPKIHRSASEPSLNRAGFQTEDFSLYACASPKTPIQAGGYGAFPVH
Chain of Proto-oncogene tyrosine-protein kinase receptor Ret (Homo sapiens) (P07949 whole entry, the tested form may be a part): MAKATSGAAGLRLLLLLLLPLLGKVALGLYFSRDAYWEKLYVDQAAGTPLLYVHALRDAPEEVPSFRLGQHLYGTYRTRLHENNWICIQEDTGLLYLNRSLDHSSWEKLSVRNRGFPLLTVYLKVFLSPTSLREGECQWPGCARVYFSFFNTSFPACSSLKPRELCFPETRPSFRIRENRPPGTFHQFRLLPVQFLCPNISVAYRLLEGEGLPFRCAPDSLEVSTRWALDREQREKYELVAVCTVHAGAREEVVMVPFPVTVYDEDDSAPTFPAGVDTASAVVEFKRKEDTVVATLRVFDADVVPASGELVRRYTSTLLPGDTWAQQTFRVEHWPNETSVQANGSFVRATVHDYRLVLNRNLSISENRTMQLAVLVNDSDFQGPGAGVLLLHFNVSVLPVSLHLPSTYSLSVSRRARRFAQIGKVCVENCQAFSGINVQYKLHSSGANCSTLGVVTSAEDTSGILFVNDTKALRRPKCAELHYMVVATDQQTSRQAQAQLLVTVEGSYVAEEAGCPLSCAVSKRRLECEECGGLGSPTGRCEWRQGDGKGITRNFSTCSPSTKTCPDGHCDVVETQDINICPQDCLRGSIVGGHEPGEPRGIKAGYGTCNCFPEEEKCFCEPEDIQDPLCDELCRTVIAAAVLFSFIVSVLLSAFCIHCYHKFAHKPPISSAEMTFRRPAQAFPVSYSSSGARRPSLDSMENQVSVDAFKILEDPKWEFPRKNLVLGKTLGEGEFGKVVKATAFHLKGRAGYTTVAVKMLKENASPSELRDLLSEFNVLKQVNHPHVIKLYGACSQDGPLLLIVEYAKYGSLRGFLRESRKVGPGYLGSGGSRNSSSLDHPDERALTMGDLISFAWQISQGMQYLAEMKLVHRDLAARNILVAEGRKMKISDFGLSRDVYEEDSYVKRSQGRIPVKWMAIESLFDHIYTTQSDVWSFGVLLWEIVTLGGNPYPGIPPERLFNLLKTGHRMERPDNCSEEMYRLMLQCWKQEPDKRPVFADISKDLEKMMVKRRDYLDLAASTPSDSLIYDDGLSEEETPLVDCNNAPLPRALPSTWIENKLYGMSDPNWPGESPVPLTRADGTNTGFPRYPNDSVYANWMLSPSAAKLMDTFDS
Chain of Mitogen-activated protein kinase 8 (Homo sapiens) (P45983 whole entry): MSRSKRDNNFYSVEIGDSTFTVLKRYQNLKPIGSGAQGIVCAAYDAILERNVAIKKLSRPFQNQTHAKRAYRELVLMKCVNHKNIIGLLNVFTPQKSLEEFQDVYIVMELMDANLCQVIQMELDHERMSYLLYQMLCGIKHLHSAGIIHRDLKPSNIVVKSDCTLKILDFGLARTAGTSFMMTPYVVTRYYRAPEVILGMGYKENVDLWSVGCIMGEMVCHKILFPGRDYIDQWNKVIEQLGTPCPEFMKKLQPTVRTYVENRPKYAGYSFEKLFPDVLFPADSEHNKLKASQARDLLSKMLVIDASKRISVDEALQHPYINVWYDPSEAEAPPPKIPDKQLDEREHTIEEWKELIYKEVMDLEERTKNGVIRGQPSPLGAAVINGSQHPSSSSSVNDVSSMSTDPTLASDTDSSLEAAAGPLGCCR

SMILES: CN1CCN(CCCOc2cccc3nc(Nc4ccc(Cl)c(C(F)(F)F)c4)ccc23)CC1
- GI50 (K562): 1.62 µM
- GI50 (HOP-62): 1.7 µM
- GI50 (NCI-H226): 2.07 µM
- GI50 (NCI-H322M): 1.44 µM
- GI50 (HCT-15): 1.22 µM
- GI50 (KM12): 1.74 µM
- GI50 (SNB-75): 1.52 µM
- GI50 (LOX IMVI): 1.56 µM
- GI50 (OVCAR-4): 2.73 µM
- GI50 (OVCAR-8): 1.92 µM
- GI50 (A498): 1.68 µM
- GI50 (TK-10): 1.8 µM
- GI50 (UO-31): 1.46 µM
- GI50 (MCF7): 1.41 µM
- GI50 (Hs-578T): 2 µM
- inhibition at 10 µM [1]: 37.1%
- inhibition at 0.1 µM [2]: 6.07%
- GI50 [3]: > 10 µM
- Activity [4]: < 60%
- Activity [5]: < 60%
- Activity [6]: < 60%
- Activity [7]: < 60%
- Activity [8]: 66%
- Activity [9]: < 60%
- Activity [10]: < 60%
- inhibition [11]: < 60%
- inhibition [12]: < 60%
- inhibition [13]: < 60%
- inhibition [14]: < 60%
- inhibition [15]: < 60%
- inhibition [16]: < 60%
- inhibition [17]: < 60%
- inhibition [18]: < 60%
- inhibition [19]: 96%
- inhibition [20]: < 60%
- IC50 [21]: 2.52 µM
- GI50 (cells): 1.68 µM
- LC50 (50% lethal concentration) (cells): 10.1 µM
- TGI (cells): 3.66 µM
- GI50 [22]: 1.58 µM
- TGI [22]: 3.17 µM
- CC50 ([22]; read-out: LC50 (the source's name)): 6.27 µM
- GI50 [23]: 1.98 µM
- LC50 [23]: 10.3 µM
- TGI [23]: 4.18 µM
- GI50 [24]: 1.62 µM
- LC50 (lethal concentration 50%) [24]: 6.46 µM
- TGI [24]: 3.23 µM
- GI50 [25]: 1.69 µM
- LC50 (concentration killing 50% of cells) [25]: 5.88 µM
- TGI [25]: 3.15 µM
